In patent publication US8133847B2, “Pyrido[2,3-B]pyrazine derivatives useful as herbicidal compounds” (Syngenta Limited, priority 2006, dated 2012):

How the values were obtained:
Assay in all cases: Example B1 herbicidal action, post-emergence, 96-cell seed trays, climatic chamber
Format in all cases: in vivo
[1] = system: Amaranthus retroflexus (AMARE); details: Application post-emergence, 1000 mg/l spray equivalent to 1000 g/ha, evaluated after 9 days
Procedure: (§1) Seeds of a variety of test species were sown in sterilised standard soil in seed trays each having 96 cells. After cultivation for 8 to 9 days cultivation (post-emergence) under controlled conditions in a climatic chamber (cultivation at 23/17° C., day/night; 13 hours light; 50-60% humidity), the plants were treated with an aqueous spray solution of 1000 mg/l of the active ingredient dissolved in 10% DMSO (dimethyl sulfoxide, CAS RN 67-68-5) as a solvent, equivalent to 1000 g/ha. The plants were grown in the climatic chamber after application at (24/19° C., day/night; 13 hours light; 50-60% humidity) and watered twice daily. After 9 days until the test was evaluated (100=total damage to plant, 0=no damage to plant)

Solanum nigrum (SOLNI) = details: Application post-emergence, 1000 mg/l spray equivalent to 1000 g/ha, evaluated after 9 days (100=total damage to plant, 0=no damage to plant)
Procedure: as §1

Stellaria media (STEME) = details: Application post-emergence, 1000 mg/l spray equivalent to 1000 g/ha, evaluated after 9 days (100=total damage to plant, 0=no damage to plant)
Procedure: as §1

[2] = system: Nasturtium officinale (NAAOF); set-up: scale not given here; details: Application post-emergence, 1000 mg/l spray equivalent to 1000 g/ha, evaluated after 9 days (100=total damage to plant, 0=no damage to plant)
Procedure: as §1

Row | SMILES | damage to plant, Amaranthus retroflexus (AMARE) [1] | damage to plant, Solanum nigrum (SOLNI) (Solanum nigrum (SOLNI)) | damage to plant, Stellaria media (STEME) (Stellaria media (STEME)) | damage to plant, Nasturtium officinale (NAAOF) [2]
1 | Cc1ccc(Cl)c(-c2c(OC(=O)C(C)(C)C)c3nccnc3[nH]c2=O)c1F [Compound B37] | 0 | 0 | 5 | 0
2 | CC(C)C(=O)Oc1c(-c2cc(C(F)(F)F)ccc2Cl)c(=O)[nH]c2nccnc12 [Compound B38] | 4 | 0 | 0 | 4
3 | O=C(Oc1c(-c2c(F)ccc(F)c2Cl)c(=O)[nH]c2nccnc12)c1ccc([N+](=O)[O-])cc1 [Compound B40] | 6 | 0 | 1 | 0
4 | CC(C)(C)C(=O)Oc1c(-c2c(Cl)cc(C(F)(F)F)cc2Cl)c(=O)[nH]c2nccnc12 [Compound B41] | 2 | 2 | 1 | 2
5 | CCn1c(=O)c(-c2ccc(F)cc2Cl)c(OC(=O)C(C)C)c2nccnc21 [Compound C3] | 0 | 5 | 6 | 7
6 | CC(C)C(=O)Oc1c(-c2ccc(F)cc2Cl)c(=O)n(C)c2nccnc12 [Compound C5] | 7 | 2 | 8 | 7
7 | CCn1c(=O)c(-c2ccc(Cl)cc2Cl)c(OC(C)=O)c2nccnc21 [Compound C6] | 8 | 5 | 9 | 8
8 | COCCn1c(=O)c(-c2ccc(Cl)cc2Cl)c(OC(C)=O)c2nccnc21 [Compound C9] | 0 | 3 | 2 | 2
9 | CCn1c(=O)c(-c2c(F)ccc(F)c2Cl)c(OC(=O)C(C)C)c2nccnc21 [Compound C11] | 9 | 5 | 8 | 8
10 | CCn1c(=O)c(-c2c(F)ccc(F)c2Cl)c(OC(C)=O)c2nccnc21 [Compound C13] | 8 | 2 | 8 | 8
11 | C=CCn1c(=O)c(-c2c(F)ccc(F)c2Cl)c(OC(C)=O)c2nccnc21 [Compound C14] | 7 | 4 | 8 | 8
12 | COCCn1c(=O)c(-c2c(F)ccc(F)c2Cl)c(OC(=O)C(C)C)c2nccnc21 [Compound C15] | 0 | 1 | 5 | 6
13 | CC(C)n1c(=O)c(-c2c(F)ccc(F)c2Cl)c(OC(=O)C(C)(C)C)c2nccnc21 [Compound C19] | 0 | 3 | 6 | 4
14 | CCn1c(=O)c(-c2c(F)ccc(F)c2Cl)c(OC(=O)C(C)(C)C)c2nccnc21 [Compound C21] | 8 | 0 | 8 | 8
15 | C=CCCn1c(=O)c(-c2ccccc2OC(F)(F)F)c(OC(C)=O)c2nccnc21 [Compound C22] | 1 | 2 | 5 | 8
16 | CC(C)n1c(=O)c(-c2ccccc2OC(F)(F)F)c(OC(=O)C(C)(C)C)c2nccnc21 [Compound C23] | 0 | 4 | 0 | 0
17 | CC(=O)Oc1c(-c2ccccc2OC(F)(F)F)c(=O)n(Cc2ccccc2)c2nccnc12 [Compound C24] | 0 | 3 | 3 | 4
18 | C=CCn1c(=O)c(-c2ccccc2OC(F)(F)F)c(OC(=O)C(C)(C)C)c2nccnc21 [Compound C25] | 0 | 0 | 2 | 0

Row | SMILES | damage to plant, Amaranthus retroflexus (AMARE) [1] | damage to plant, Solanum nigrum (SOLNI) (Solanum nigrum (SOLNI)) | damage to plant, Stellaria media (STEME) (Stellaria media (STEME)) | damage to plant, Nasturtium officinale (NAAOF) [2]
19 | CCn1c(=O)c(-c2ccccc2OC(F)(F)F)c(OC(=O)C(C)(C)C)c2nccnc21 [Compound C26] | 0 | 0 | 2 | 0
20 | CCn1c(=O)c(-c2ccccc2OC(F)(F)F)c(OC(C)=O)c2nccnc21 [Compound C27] | 7 | 6 | 5 | 7
21 | CCC(=O)Oc1c(-c2ccccc2OC(F)(F)F)c(=O)n(C)c2nccnc12 [Compound C28] | 2 | 2 | 7 | 7
22 | Cn1c(=O)c(-c2ccccc2OC(F)(F)F)c(OC(=O)C(C)(C)C)c2nccnc21 [Compound C29] | 0 | 4 | 0 | 2
23 | C=CCn1c(=O)c(-c2c(Cl)cccc2Cl)c(OC(=O)CC)c2nccnc21 [Compound C30] | 8 | 4 | 8 | 8
24 | CCC(=O)Oc1c(-c2c(Cl)cccc2Cl)c(=O)n(CC)c2nccnc12 [Compound C31] | 8 | 4 | 8 | 8
25 | CCC(=O)Oc1c(-c2c(Cl)cccc2Cl)c(=O)n(C)c2nccnc12 [Compound C32] | 8 | 2 | 8 | 8
26 | CC(=O)Oc1c(-c2c(Cl)cccc2Cl)c(=O)n(C)c2nccnc12 [Compound C33] | 3 | 6 | 6 | 7
27 | CCC(=O)Oc1c(-c2c(Cl)cccc2Cl)c(=O)n(CCOC)c2nccnc12 [Compound C34] | 2 | 0 | 6 | 5
28 | C/C=C/C(=O)Oc1c(-c2c(Cl)cccc2Cl)c(=O)n(C)c2nccnc12 [Compound C35] | 2 | 0 | 7 | 7
29 | CCOC(=O)Oc1c(-c2c(Cl)cccc2Cl)c(=O)n(C)c2nccnc12 [Compound C36] | 5 | 6 | 5 | 7
30 | Cn1c(=O)c(-c2c(Cl)cccc2Cl)c(OC(=O)C(C)(C)C)c2nccnc21 [Compound C37] | 5 | 6 | 5 | 7
31 | CCCC(=O)Oc1c(-c2c(Cl)cccc2Cl)c(=O)n(C)c2nccnc12 [Compound C38] | 5 | 7 | 7 | 7
32 | C=CCn1c(=O)c(-c2c(Cl)cccc2Cl)c(OC(=O)OCC)c2nccnc21 [Compound C39] | 7 | 7 | 6 | 6
33 | CCCCn1c(=O)c(-c2c(Cl)cccc2Cl)c(OC(C)=O)c2nccnc21 [Compound C40] | 3 | 2 | 2 | 2
34 | CCn1c(=O)c(-c2c(Cl)cccc2Cl)c(OC(=O)C(C)(C)C)c2nccnc21 [Compound C41] | 2 | 0 | 2 | 2
35 | CC(=O)Oc1c(-c2ccc(Cl)cc2Cl)c(=O)n(C)c2nccnc12 [Compound C43] | 3 | 3 | 5 | 5
